{"source": "patent US8022075B2", "about": "“Diagnostic and remedy for disease caused by amyloid aggregation and/or deposition” (Fujifilm Ri Pharma Co., Ltd., priority 2005, dated 2011)", "key": {"[1]": {"experiment": "In vitro metabolism rate by use of liver microsomes, human", "assay_type": "in vitro ADME", "procedure": "(§1) Liver microsomes (Pooled human Liver Microsomes, Male CD1 mouse, Male Wistar Rat), which is a commercial product of In Vitro Technologies, were employed.\n(§2) Each of compound 23, compound 24, and [^125I]-IMPY was dissolved in Milli Q water, to thereby adjust the concentration to 11 μCi/mL (5 nmol/L).\n(§3) To a mixture of 100 mM glucose 6-phosphate and […] NADPH solution, an equal volume of […] magnesium chloride was added. Glucose 6-phosphate dehydrogenase was employed at a final concentration of 10 unit/mL. These components were reconstituted upon use.\n(§4) Method: To each of the glass test tubes, […] EDTA/0.33M potassium phosphate buffer (150 μL), Milli Q water (200 μL), 0.005 or 0.5 mg protein/mL microsome suspension (50 μL), and a test substance solution (50 μL) were added. The mixture was preliminarily incubated at 37° C. for two minutes. The above-prepared NADPH-generating system (50 μL) was added, to thereby initiate reaction. At an arbitrary point of time, an equal volume of acetonitrile was added, to thereby terminate the reaction. The reaction mixture (50 μL) was sampled into a glass tube for determining the metabolism amount, and saturated ascorbic acid ethanol solution (25 μL) was added thereto. The sample was developed by means of a reverse phase TLC (Whatman KC18F) with 80% methanol. The TLC was brought into contact with an imaging plate, and radioactivity was detected by means of BAS-1800 (product of Fuji Film Co., Ltd.). The metabolism rate was calculated through analysis by means of GraphPad Prism Ver. 4.00 (GraphPad Software, Inc.)."}, "[2]": {"experiment": "Analysis of radioactive substance in the rat brain after administration (TLC)", "assay_type": "in vivo", "details": "rat brain homogenate 2 to 120 minutes after administration (FIG. 5)", "procedure": "Compounds which had been incorporated into the rat brain were investigated. The left part of the rat brain, obtained in the above experiment (distribution in the rat body) was homogenized by means of a Potter-type homogenizer with 40-mmol/L ascorbic acid-containing PBS (4-fold amount by mass). Acetonitrile (4-fold volume with respect to homogenate) was added to the homogenate, and the mixture was filtered, to thereby remove protein. The acetonitrile layer was developed by means of a reverse phase TLC (Whatman KC18F). The TLC was brought into contact with an imaging plate, and radioactivity was detected by means of BAS-1800 (product of Fuji Film Co., Ltd.). Each of the brain homogenate obtained 2, 5, 40, 60, and 120 minutes after administration was treated with acetonitrile so as to remove protein, and extracted radioactive substances were analyzed through thin-layer chromatography (KC18F, Whatman)."}, "[3]": {"experiment": "In vitro metabolism rate by use of liver microsomes, mouse", "assay_type": "in vitro ADME, Male CD1 mouse", "procedure": "as §1, §2, §3, §4"}, "[4]": {"experiment": "Distribution in rat body (radioactivity in the brain)", "assay_type": "in vivo, Wistar male rats", "details": "caudal vein", "procedure": "Wistar male rats (purchased from Japan SLC, Inc.) were conditioned for seven days, maintaining water and chow (commercial solid chow: F-2, product of Funabashi Farm) ad libitum, and the non-fasting rats were employed in the experiment (8-week-old at experiment).\nEach of compound 23, compound 24, and [^125I]-IMPY was dissolved in a solution containing 40 mM ascorbic acid and 0.1% Tween80, to thereby adjust the concentration to 100 μCi/200 μL. Each sample was administered to each rat through the caudal vein under non-anesthetization. […] The brain was cut into the left and right parts, and each part was weighed. The right brain was placed in a vial, and radioactivity was measured by means of a gamma counter. The radioactivity relative to the administration amount was calculated. Specifically, radioactivity of the tissue and that divided by the tissue weight were calculated as % I.D. and % I.D./g-tissue weight, respectively."}, "[5]": {"experiment": "In vitro metabolism rate by use of liver microsomes, rat", "assay_type": "in vitro ADME, Male Wistar Rat", "procedure": "as §1, §2, §3, §4"}}}
{"compound": "CN(C)c1ccc(-c2cn3cc([125I])ccc3n2)cc1", "note": "[^125I-IMPY, reference compound]", "values": [{"measurement": "Rate of metabolism by liver microsomes", "setting": "[1]", "result": "0.510 ± 0.137", "unit": "pmol/min/mg protein"}, {"measurement": "Metabolites in the brain (TLC of extracted radioactive substance)", "setting": "[2]", "result": "provided a plurality of metabolites in the brain"}, {"measurement": "Rate of metabolism by liver microsomes", "setting": "[3]", "result": "0.911 ± 0.331", "unit": "pmol/min/mg protein"}, {"measurement": "Radioactivity in the rat brain Mean ± SD", "setting": "[4]; 2 min after administration", "result": "1.110 ± 0.027", "unit": "% I.D./g"}, {"measurement": "Radioactivity in the rat brain Mean ± SD", "setting": "[4]; 5 min after administration", "result": "0.713 ± 0.098", "unit": "% I.D./g"}, {"measurement": "Radioactivity in the rat brain Mean ± SD", "setting": "[4]; 15 min after administration", "result": "0.337 ± 0.019", "unit": "% I.D./g"}, {"measurement": "Radioactivity in the rat brain Mean ± SD", "setting": "[4]; 30 min after administration", "result": "0.144 ± 0.021", "unit": "% I.D./g"}, {"measurement": "Radioactivity in the rat brain Mean ± SD", "setting": "[4]; 60 min after administration", "result": "0.065 ± 0.002", "unit": "% I.D./g"}, {"measurement": "Radioactivity in the rat brain Mean ± SD", "setting": "[4]; 120 min after administration", "result": "0.027 ± 0.001", "unit": "% I.D./g"}, {"measurement": "Rate of metabolism by liver microsomes", "setting": "[5]", "result": "2.164 ± 0.647", "unit": "pmol/min/mg protein"}]}
